Source: a melting point compilation (Tetko et al.; mined from patent text by program, amines drawn as free bases though some values may be those of a salt)

Q: With O=S(=O)(c1ccc(Cl)cc1)C(c1cc(F)ccc1F)c1cc(NCCc2ccncc2)ncc1Cl (centres undefined) as the compound, how does the melting point read?
A: Its melting point is 148 to 150 °C.

Q: With CC(C)CCC1=Cc2c(F)cc(F)cc2N(C)C1C (centres undefined) as the compound, how does the melting point read?
A: The melting point was 154 to 155 °C.

Q: For CCC1(C)CC2(NC(=O)N(C)C2=O)C(C)C(C)(CC)N1C (centres undefined), which melting point is on record?
A: Its melting point is 190 to 195 °C.

Q: Which melting point does the source give for C=C(c1ccccc1)c1cccc(C(=NOCc2ccc(OCc3nc(-c4ccccc4)oc3C)cc2)C(=O)O)c1 here?
A: The melting point was 171 to 172 °C.

Q: Which melting point does the source give for CCC(Oc1ccc(C(C)(C)CC)cc1C(C)(C)CC)C(=O)Nc1cc(Cl)c2[nH]c(=O)[nH]c2c1O (centres undefined) here?
A: The melting point was 201 to 204 °C.

Q: Which melting point does the source give for N#CN1CCC(Nc2ncc3ncnc(Nc4ccc(F)c(Cl)c4)c3n2)CC1 here?
A: Its melting point is 245 to 247 °C.

Q: For OC(c1ccccc1)c1cc2ccncc2[nH]1 (centres undefined), which melting point is on record?
A: The melting point was 178 to 180 °C.

Q: With CC(C)(C)OC(=O)NCC(=O)Nc1cccc(I)c1 as the compound, how does the melting point read?
A: Its melting point is 126 to 128 °C.

Q: Which melting point does the source give for Cc1cc2c3c(ccn3-c3ccccc3C(N3CCN(C)CC3)=N2)c1 here?
A: Its melting point is 167 to 168 °C.

Q: Which melting point does the source give for Cn1c(C(F)(F)F)cc(=O)n(-c2cc(OCC=C(Cl)Cl)c(Cl)cc2F)c1=O here?
A: The melting point was 126 to 127 °C.

Q: With CCOC(=O)CC(=O)c1cc(F)c(F)c(F)c1F as the compound, how does the melting point read?
A: Its melting point is 47 to 49 °C.

Q: With Cc1nc(N)nc(N)c1-c1ccc(Cl)cc1Cl as the compound, how does the melting point read?
A: Its melting point is 222 °C.

Q: With Cc1ncc(C(=O)O)c(C2=NC(C)(C(C)C)C(=O)N2)n1 (centres undefined) as the compound, how does the melting point read?
A: The melting point was 56 to 57 °C.

Q: For CN1CCC(Oc2c(F)cc3c(=O)c(C(=O)O)cn(C4CC4)c3c2F)CC1, which melting point is on record?
A: The melting point was 166 to 167 °C.

Q: With CCOc1nc2ccccc2nc1N(C)C(=O)N1CCN(c2cc(OC)cc(OC)c2)CC1 as the compound, how does the melting point read?
A: The melting point was 159 to 161 °C.

Q: With CCOC(=O)C1(CCCN)CCCCC1(O)c1ccccc1 (centres undefined) as the compound, how does the melting point read?
A: The melting point was 130 to 133 °C.

Q: Which melting point does the source give for COc1ccncc1-c1ccc(OC2SCC(O)C(O)C2O)cn1 (centres undefined) here?
A: Its melting point is 207 °C.

Q: With CCCCNC(=O)C1CCNCC1 as the compound, how does the melting point read?
A: Its melting point is 75 to 79 °C.

Q: For Cc1cccc(-n2nc(C)cc2-c2cc[nH]c(=O)c2)c1, which melting point is on record?
A: The melting point was 182 to 183 °C.

Q: For CN(C)Nc1cc(Cl)c(Cl)cc1[N+](=O)[O-], which melting point is on record?
A: Its melting point is 138 to 143 °C.

Q: For COc1cc(C(=O)CCCC2CCCCC2)c(OC)cc1C, which melting point is on record?
A: Its melting point is 53.5 to 54.5 °C.

Q: Which melting point does the source give for O=C(O)[C@@H]1CCCN1S(=O)(=O)c1cc(Cl)cc(Cl)c1O here?
A: Its melting point is 107 °C.

Q: Which melting point does the source give for Cc1oc2c(NC(=O)c3c(Cl)ccc(CO)c3Cl)cccc2c1C here?
A: Its melting point is 258 to 261 °C.

Q: Which melting point does the source give for Cc1c(Nc2ccc([N+](=O)[O-])cc2C(=O)O)cccc1C(F)(F)F here?
A: Its melting point is 244 to 245 °C.

Q: For NCCCCCC(N)=O, which melting point is on record?
A: Its melting point is 49 to 50 °C.

Q: Which melting point does the source give for CCCCOc1cc(/C=C(\OCC)C(=O)O)ccc1OCCc1ccc(OS(=O)(=O)CCCC)c(Cl)c1 here?
A: Its melting point is 80 °C.

Q: Which melting point does the source give for N#Cc1cccc(C2=Nc3ccc(-c4cccc(F)c4F)cc3NC(=O)C2)c1 here?
A: The melting point was 240 °C.

Q: Which melting point does the source give for Clc1ccc(C#Cc2ccc(-c3ccccc3)s2)cc1 here?
A: Its melting point is 141 to 145 °C.

Q: Which melting point does the source give for NC(=O)c1cc2c(Oc3ccc(Cl)cc3)c[nH]c(=O)c2s1 here?
A: The melting point was > 250 °C.

Q: Which melting point does the source give for COC(=O)c1cc2cc(C(=O)c3cccc(C(C)C#N)c3)sc2s1 (centres undefined) here?
A: Its melting point is 163 °C.

Q: Which melting point does the source give for Cc1nc2c(N)nc3ccccc3c2n1CCOCCN here?
A: Its melting point is 155 to 157 °C.

Q: Which melting point does the source give for O=[N+]([O-])c1c(NCCC23CCCN2CCC3)cnc2ccccc12 here?
A: Its melting point is 106 to 108 °C.

Q: For N#Cc1cccnc1N1CCN(CC(=O)Nc2cccc(Cl)c2)CC1, which melting point is on record?
A: Its melting point is 108 to 109 °C.

Q: For CCc1cccc2c3c([nH]c12)C(CC)(CCOC)OCC3 (centres undefined), which melting point is on record?
A: Its melting point is 125 to 126 °C.

Q: Which melting point does the source give for Cc1nc(-c2cccc(CN3C(=O)C4(COc5cc6c(cc54)OCCO6)c4ccccc43)c2)no1 (centres undefined) here?
A: The melting point was 90 to 95 °C.

Q: With CCN(CC)c1ccc(/C=C/c2ccccc2F)cc1 as the compound, how does the melting point read?
A: Its melting point is 78 to 79 °C.

Q: With CC(=O)CC(=O)N1CC(c2ccccc2)c2ccccc21 (centres undefined) as the compound, how does the melting point read?
A: The melting point was 88 to 89 °C.

Q: For O=c1c(O)c(-c2ccoc2)oc2ccccc12, which melting point is on record?
A: Its melting point is 165 to 166 °C.

Q: With COc1cccc2c1CCC(C#N)C2=O (centres undefined) as the compound, how does the melting point read?
A: Its melting point is 120 to 122 °C.

Q: With O=C(c1cccs1)c1cnn2c(-c3cc([N+](=O)[O-])ccc3Cl)ccnc12 as the compound, how does the melting point read?
A: The melting point was 162 to 166 °C.

Q: Which melting point does the source give for CC(=O)Nc1ccc(F)cc1OCCOc1ccc([N+](=O)[O-])cc1F here?
A: Its melting point is 192 to 194 °C.

Q: With O=C1NC(O)c2cccn2-c2ccsc21 (centres undefined) as the compound, how does the melting point read?
A: The melting point was 172 °C.

Q: Which melting point does the source give for CNC(=O)[C@@H]1C[C@@H](OC)CN1S(=O)(=O)c1ccc(Cl)c(COc2cccc3c2NC(C)(C)C=C3n2cncn2)c1Cl here?
A: Its melting point is 73 °C.

Q: For N#Cc1ccc2[nH]c(-c3ccc(Cl)c(Cl)c3)c(CCCC(=O)O)c2c1, which melting point is on record?
A: The melting point was 190 to 195 °C.

Q: Which melting point does the source give for O=C(c1ccc2c(c1)OCCO2)c1cc2ccccc2o1 here?
A: Its melting point is 68 to 70 °C.

Q: Which melting point does the source give for C=C(CS(=O)(=O)c1ccccc1)c1ccccc1 here?
A: Its melting point is 105 °C.

Q: With CC1CCn2c(nc(-c3ccncn3)cc2=O)N1 (centres undefined) as the compound, how does the melting point read?
A: Its melting point is 199 to 201 °C.

Q: With CCc1cccc(NC(=O)NCC(=O)N(CC(=O)N(C)c2ccccc2)c2ccccc2)c1 as the compound, how does the melting point read?
A: The melting point was 105 °C.

Q: For CC(C)Oc1c(Br)c(Br)n(Cc2ccccc2)c1C(=O)Nc1nnn[nH]1, which melting point is on record?
A: The melting point was 199 to 205 °C.

Q: Which melting point does the source give for CC1C(=O)Nc2cccc3c2N1C(=O)C3c1ccccc1 (centres undefined) here?
A: Its melting point is 208 to 211 °C.

Q: Which melting point does the source give for CCOC(=O)c1[nH]c2cc(Cl)cc(Cl)c2c1NCC(=O)OCCCC(=O)c1ccccc1 here?
A: The melting point was 139 to 140 °C.

Q: For O=C1NCCc2c(-c3cccs3)[nH]c3cccc1c23, which melting point is on record?
A: Its melting point is 220 to 222 °C.

Q: For Cn1ncc2c1-c1c(Oc3ccc4c(c3)OCO4)sc(C(=O)c3cccnc3)c1CC2, which melting point is on record?
A: Its melting point is 180 to 182 °C.

Q: With Clc1cccc(-n2c(/C=C/c3ccccc3)nc3ccccc32)n1 as the compound, how does the melting point read?
A: The melting point was 122 to 123 °C.

Q: For C=CCOCc1c(CO)sc2c(=O)c(C(=O)NCc3ccc(Cl)cc3)cn(C)c12, which melting point is on record?
A: Its melting point is 184 to 185 °C.

Q: For O=C1C=C(CBr)C(=O)C(CCC2=CC(=O)C=C(CBr)C2=O)=C1, which melting point is on record?
A: The melting point was 146 to 147 °C.

Q: Which melting point does the source give for CC(=O)Nc1c(I)c(NC(C)=O)c(I)c(C(=O)OCC(O)CO)c1I (centres undefined) here?
A: Its melting point is 207 °C.

Q: Which melting point does the source give for Fc1ccccc1-c1ccnc2ncnn12 here?
A: The melting point was 168 to 172 °C.

Q: Which melting point does the source give for O=C1CC(c2ccccc2)CC(=O)N1c1ccncc1 here?
A: Its melting point is 229 to 230 °C.

Q: With O=C(N[C@H](Cc1ccc(CC(F)(F)C(F)(F)F)cc1)[C@@H](O)c1cccc(Cl)c1)c1cccc2c1C=CCCC2 (racemic) as the compound, how does the melting point read?
A: Its melting point is 176 to 177 °C.

Q: For CCCn1cc(C(=O)c2cccc3cc(OC)ccc23)c2ccccc21, which melting point is on record?
A: The melting point was 139 to 140 °C.

Q: Which melting point does the source give for Cc1cc(OCc2ccccc2)c(C)c([N+](=O)[O-])c1 here?
A: Its melting point is 66 to 68 °C.

Q: For COC(=O)C(C)C(=O)Nc1ccc(OCc2cccc(F)c2)cc1 (centres undefined), which melting point is on record?
A: Its melting point is 119 °C.

Q: Which melting point does the source give for CCOc1c(C#N)oc2c3ccccc3n(-c3ccccc3)c12 here?
A: The melting point was 121 to 122 °C.

Q: With CN(C)CCNS(=O)(=O)c1cc(NC(=O)c2cnn3c(C(F)(F)F)cc(-c4ccc(C(F)(F)F)cc4)nc23)c(Cl)s1 as the compound, how does the melting point read?
A: Its melting point is 198 °C.

Q: Which melting point does the source give for Cc1cc(N)nc(CCc2nc3cc(Br)cnc3[nH]2)c1 here?
A: The melting point was 216 °C.

Q: With CCOC(=O)N=C1NCC(Oc2ccc(C(Cc3cc4cc(C#N)ccc4s3)C(=O)OCC)cc2)CN1 (centres undefined) as the compound, how does the melting point read?
A: The melting point was 179 to 182 °C.

Q: Which melting point does the source give for CC(O)=C(C#N)C(=O)Nc1ccccc1 here?
A: Its melting point is 134 to 135 °C.

Q: For O=C1c2c(Cl)cccc2-n2cnc(-c3nnco3)c2[C@@H]2CCN12, which melting point is on record?
A: Its melting point is 264 to 265 °C.

Q: For N#CC1Cc2ccc(N)cc2C1 (centres undefined), which melting point is on record?
A: The melting point was 73 to 76 °C.

Q: With CC(=O)OCC1OC(SCC#N)C(OC(C)=O)C(OC(C)=O)C1OC(C)=O (centres undefined) as the compound, how does the melting point read?
A: The melting point was 97 °C.

Q: Which melting point does the source give for COC(=O)Cn1c(=O)c(=O)[nH]c2ccccc21 here?
A: The melting point was 269 °C.

Q: With CC1(C)C(=O)Nc2cc3[nH]c(-c4cccs4)nc3cc21 as the compound, how does the melting point read?
A: The melting point was 332 to 336 °C.

Q: With O=C(O)c1cc(NCCc2ccc([N+](=O)[O-])cc2)ccc1O as the compound, how does the melting point read?
A: The melting point was 234 to 236 °C.
